Consider two compounds from patent US20260258033A1, “2,7-Naphthyridine Compounds as MASTL Inhibitors” (Pfizer Inc., priority 2022, published 2026).

In general, IC50 refers to the concentration that inhibits the measured activity by half. The term Ki denotes the equilibrium dissociation constant of an inhibitor or competing ligand from its target.

In one experiment the test system is breast cancer cells. As to conditions: in breast cancer cells; Kang et al., Pharmaceuticals 2021; read-out: cellular IC50; cited from earlier work.
Experiment [1] addresses T1, Full-length human recombinant N-term FLAG-tagged MASTL protein (Homo sapiens, UniProt Q96GX5).
T1 sequence (Q96GX5 1-879): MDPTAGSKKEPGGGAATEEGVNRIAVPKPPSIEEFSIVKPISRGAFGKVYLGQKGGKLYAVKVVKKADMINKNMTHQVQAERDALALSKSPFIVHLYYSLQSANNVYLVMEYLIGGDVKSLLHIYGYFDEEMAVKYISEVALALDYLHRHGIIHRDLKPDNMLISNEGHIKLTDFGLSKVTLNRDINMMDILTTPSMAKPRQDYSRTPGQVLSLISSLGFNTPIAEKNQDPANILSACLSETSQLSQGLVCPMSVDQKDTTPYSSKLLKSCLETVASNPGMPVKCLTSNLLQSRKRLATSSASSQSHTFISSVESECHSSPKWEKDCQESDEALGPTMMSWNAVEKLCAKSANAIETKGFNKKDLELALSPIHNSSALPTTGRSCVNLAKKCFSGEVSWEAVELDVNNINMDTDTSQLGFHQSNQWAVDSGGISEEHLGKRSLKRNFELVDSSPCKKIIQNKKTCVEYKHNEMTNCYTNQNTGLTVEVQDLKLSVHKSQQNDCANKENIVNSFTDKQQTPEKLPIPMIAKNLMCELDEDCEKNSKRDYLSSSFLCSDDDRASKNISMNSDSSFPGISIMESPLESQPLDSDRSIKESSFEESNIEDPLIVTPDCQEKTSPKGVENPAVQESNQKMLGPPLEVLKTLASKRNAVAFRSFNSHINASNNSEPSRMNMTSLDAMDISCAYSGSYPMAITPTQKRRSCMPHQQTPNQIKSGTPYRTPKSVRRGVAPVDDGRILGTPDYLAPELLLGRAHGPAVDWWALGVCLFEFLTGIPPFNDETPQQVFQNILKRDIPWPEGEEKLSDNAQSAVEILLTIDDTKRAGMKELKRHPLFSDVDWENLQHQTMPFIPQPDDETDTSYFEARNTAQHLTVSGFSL
In words: MASTL enzyme kinase assay (CHEF PhosphoSens). As to conditions: MASTL Ki (nM), 3 nM MASTL, 1 mM ATP, room temperature; geometric mean of at least 3 independent determinations (* denotes n = 2).
From the text: MASTL enzyme kinase assay was used to measure the inhibition constant (Ki) of Examples of the present invention.
Full-length human recombinant N-term FLAG-tagged MASTL protein (construct LJIC-3077G2), activated by CDK1, was produced at Pfizer Inc by expression in baculovirus-infected insect cells. All reagents were purchased from Sigma-Aldrich, Inc (St. Louis, MO), unless specified otherwise. Tween™ 20 detergent (10% Solution) was purchased from EMD Millipore Corp (Billerica, MA). The CHEF phosphoacceptor peptide substrate (AQT0693) was purchased from AssayQuant technologies, Inc (Marlboro, MA). […] The reactions contained 1 mM ATP and were initiated by the addition of enzyme. Initial reaction velocities were determined by following the fluorescence (λex=360 nm, λem=485 nm) of appropriate CHEF peptide substrate for 120 minutes in an end-point mode in a SpectraMax Paradigm Microplate Reader (Molecular Devices, LLC. San Jose, California). The extents of reactions were estimated to be <20%.

As to `N#CCc1ccc(Nc2nc(Nc3cc(C4CC4)[nH]n3)c3ccccc3n2)cc1` [MKI-2, 2-(4-((4-((5-cyclopropyl-1H-pyrazol-3-yl)amino)quinazolin-2-yl)amino)phenyl)acetonitrile], the IC50 in the experiment with breast cancer cells was 143 nM.

Regarding `CNC(C)(c1ccnc(Nc2cc3cc(-c4cnnn4C)nc(N)c3cn2)c1)C1CC1` (single isomer, unassigned) [Example 20, N^6-(4-(1-cyclopropyl-1-(methylamino)ethyl)pyridin-2-yl)-3-(1-methyl-1H-1,2,3-triazol-5-yl)-2,7-naphthyridine-1,6-diamine], the inhibitory constant (Ki) in experiment [1] was 0.049 nM.
